What was measured:
[1] = target: T1, human 5-HT2A receptor (Homo sapiens, UniProt P28223); experiment: Competition radioligand binding at human 5-HT2A receptor ([3H]-Ketanserin); conditions: mean ± SEM of 2 independent experiments, read-out: hu5-HT2A % inh. at 10 µM
T1 construct: expressed in transfected cells; host or cells: CHO-K1
Description: (§1) Competition radioligand binding assays were performed on membranes isolated from cell lines stably expressing the cloned human receptors, which were either in-house or commercially available. […] Assays (250 μL assay final volume) were carried out in 96-well polypropylene plates in duplicate. In short, the suspension of appropriate membrane protein was incubated in an assay buffer with the addition of the corresponding radioligand, in the presence or absence of a tested compound or reference compound. […] After the incubation, the content of the test plates was transferred to 96 well plates with glass fiber filter GF/B or GF/C, previously pretreated with polyethyleneimine (PEI), and rapidly filtered with the use of vacuum, followed by rapid washing with cold (4 °C) wash buffer. After that, the filter plates were dried at 60 °C for 1 h. Then, 30 μL of liquid scintillation cocktail (UniverSol-ES, MP Biomedicals, Solon, OH, USA) was added to each well of the filter plates, and the radioactivity was measured in a MicroBeta^2 microplate scintillation counter (PerkinElmer, Madrid, Spain).
(§2) Competition binding curves were fitted to a one-site competition binding model (Fit Ki) with the use of Prism 7 software (GraphPad, San Diego, CA, USA). logKi (log of the equilibrium dissociation constant (Ki)) values were obtained after constraining the concentration of radioligand employed in the assay and its dissociation constant (KD) as determined in saturation radioligand binding assays.

[2] = system: mice; experiment: Elevated plus-maze (EPM) test; format: in vivo; conditions: 25, 50 and 75 mg/kg i.p., 60 min before the test
Description: The experiments were carried out on 6 weeks old naive Swiss male mice (Experimental Medicine Center (OMD), Lublin, Poland), weighing 28–30 g. The cages with mice were located in air-conditioned rooms maintaining the ambient temperature within the range of 23–25 °C. The animals were provided with a natural 12 h day/night cycle, replicating the day and night mode. Each testing group was represented by 8–10 animals, depending on the research schedule. All experiments were conducted according to the National Institute of Health Guidelines for the Care and Use of Laboratory Animals (8th edition) and to the European Community Council Directive for the Care and Use of Laboratory Animals of 22 September 2010 (2010/63/EU) and were approved by the Local Ethical Committee (number of ethical approval: 147/2018).
Compound 17 (25, 50, 75 mg/kg) was suspended in 1% Tween 80 in saline solution and was administered intraperitoneally (i.p.) 60 min before the test. Diazepam (DZ, Relanium, Polfa, Poland) at a dose of 1 mg/kg was diluted in 0.9% saline containing 1% Tween 80 and was administered subcutaneously (s.c.), 60 min before the test. Imipramine hydrochloride (30 mg/kg, Sigma-Aldrich was administered intraperitoneally (i.p.) 60 min before the test. D-amphetamine sulfate (3 mg/kg; Sigma-Aldrich, USA) was given subcutaneously (s.c.). Prior to administration, the agent was dissolved in saline and injected 30 min before the test. Control animals received an (i.p.) or (s.c.) injection of a respective vehicle. All compounds were injected in a manner generally accepted in experimental pharmacology, in an amount of 10 mL/kg body weight.
The experiment was carried out on mice according to the method of Lister. […] The number of entries into the open arms and the time spent in these arms were scored for a 5-min test period. […] The following measures were obtained from the test: the total number of arm entries, the percentage of entries into the open arms, the time spent in the open arms expressed as a percentage of the time spent in both the open and closed arms. […]

[3] = target: T2, human dopamine D1 receptor (Homo sapiens, UniProt P21728); experiment: Competition radioligand binding at human D1 receptor ([3H]-SCH-23390); conditions: mean ± SEM of 2 independent experiments, read-out: huD1 % inh. at 10 µM
T2 construct: expressed in transfected cells; host or cells: CHO-K1
Description: as §1, §2

[4] = target: T3, human D2S receptor (Homo sapiens, UniProt P14416); experiment: Functional assays of cAMP signalling at D2 receptors (CHO-K1 cells, HTRF); format: cell-based
T3 construct: expressed in transfected cells; host or cells: CHO-K1
Description: The assessment of the activity of selected compounds at the D2 receptor was performed in cell-based functional assays of cAMP signaling, in the CHO-K1 cell line with stable expression of the cloned human D2S receptor, which was also employed for the radioligand binding assays. For D2 receptor antagonism, test compounds were dispensed into an empty 96-well plate (Isoplate-96 Black Frame White Well, PerkinElmer España SL, Madrid, Spain) with the use of the dispensing noncontact Echo 550 acoustic liquid handler (LABCYTE Inc., San Jose, CA, USA). Compounds were handled from frozen 10^−2 M stock solutions in 100% DMSO, from which serial 1000× solutions were prepared in 100% DMSO at the time of the assay, keeping vehicle concentration (0.1% DMSO) constant in the assay. Vials containing viable frozen cells were quickly thawed in a 37 °C water bath and cells were seeded into the assay plate in assay buffer (kit stimulation buffer containing 500 µM 3-isobutyl-1-methylxanthine (IBMX), which was directly added to the buffer as powder). […] After 10 min incubation at 37 °C, 10 µM forskolin was added to the corresponding wells, and incubation was continued for 5 min. After this time, cellular cAMP levels were quantified using the homogeneous time-resolved fluorescence (HTRF)-based cAMP Gs dynamic kit (Cisbio, Bioassays, Codolet, France) according to the manufacturer’s protocol. […] Basal cAMP levels were determined in control wells in the absence of compound, agonist, and forskolin.

[5] = target: T4, human dopamine D3 receptor (Homo sapiens, UniProt P35462); experiment: Competition radioligand binding at human D3 receptor ([3H]-Spiperone); conditions: mean ± SEM of 2 independent experiments, read-out: huD3 % inh. at 10 µM
T4 construct: expressed in transfected cells; host or cells: CHO-K1
Description: as §1, §2

T3 sequence (P14416 1-414 isoform P14416-2): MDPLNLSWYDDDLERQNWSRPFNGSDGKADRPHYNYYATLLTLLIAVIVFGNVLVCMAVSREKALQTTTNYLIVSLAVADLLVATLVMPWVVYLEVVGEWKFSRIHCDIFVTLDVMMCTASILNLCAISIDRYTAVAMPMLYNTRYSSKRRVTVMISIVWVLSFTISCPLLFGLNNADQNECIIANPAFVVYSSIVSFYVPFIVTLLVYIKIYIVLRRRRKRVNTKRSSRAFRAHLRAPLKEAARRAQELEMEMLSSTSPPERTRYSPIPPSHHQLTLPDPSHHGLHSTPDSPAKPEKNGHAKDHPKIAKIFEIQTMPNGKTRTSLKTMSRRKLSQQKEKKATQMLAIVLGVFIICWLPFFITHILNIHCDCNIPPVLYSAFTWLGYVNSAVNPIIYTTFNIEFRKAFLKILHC
T1 sequence (P28223 whole entry): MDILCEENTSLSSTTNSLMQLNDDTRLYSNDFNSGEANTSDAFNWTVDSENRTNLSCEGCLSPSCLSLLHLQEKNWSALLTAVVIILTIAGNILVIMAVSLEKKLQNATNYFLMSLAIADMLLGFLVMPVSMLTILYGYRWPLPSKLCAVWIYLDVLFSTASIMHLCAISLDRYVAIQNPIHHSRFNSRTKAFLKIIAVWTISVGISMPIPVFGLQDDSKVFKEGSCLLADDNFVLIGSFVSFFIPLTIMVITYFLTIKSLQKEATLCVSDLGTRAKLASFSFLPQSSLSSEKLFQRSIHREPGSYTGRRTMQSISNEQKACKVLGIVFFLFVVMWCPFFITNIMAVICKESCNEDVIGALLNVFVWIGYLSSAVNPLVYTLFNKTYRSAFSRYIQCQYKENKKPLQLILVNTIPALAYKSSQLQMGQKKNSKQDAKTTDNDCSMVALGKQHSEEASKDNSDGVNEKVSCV
T4 sequence (P35462 whole entry): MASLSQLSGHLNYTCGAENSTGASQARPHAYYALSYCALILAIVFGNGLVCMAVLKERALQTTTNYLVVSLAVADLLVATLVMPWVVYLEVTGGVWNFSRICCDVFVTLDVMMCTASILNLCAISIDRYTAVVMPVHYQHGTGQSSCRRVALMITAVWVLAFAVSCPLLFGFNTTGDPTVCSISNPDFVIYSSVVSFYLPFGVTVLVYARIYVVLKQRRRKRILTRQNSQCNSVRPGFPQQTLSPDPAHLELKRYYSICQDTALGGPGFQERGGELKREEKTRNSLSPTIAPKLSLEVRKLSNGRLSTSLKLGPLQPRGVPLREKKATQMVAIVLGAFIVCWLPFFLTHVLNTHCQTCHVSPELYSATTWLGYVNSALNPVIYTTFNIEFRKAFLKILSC
T2 sequence (P21728 whole entry): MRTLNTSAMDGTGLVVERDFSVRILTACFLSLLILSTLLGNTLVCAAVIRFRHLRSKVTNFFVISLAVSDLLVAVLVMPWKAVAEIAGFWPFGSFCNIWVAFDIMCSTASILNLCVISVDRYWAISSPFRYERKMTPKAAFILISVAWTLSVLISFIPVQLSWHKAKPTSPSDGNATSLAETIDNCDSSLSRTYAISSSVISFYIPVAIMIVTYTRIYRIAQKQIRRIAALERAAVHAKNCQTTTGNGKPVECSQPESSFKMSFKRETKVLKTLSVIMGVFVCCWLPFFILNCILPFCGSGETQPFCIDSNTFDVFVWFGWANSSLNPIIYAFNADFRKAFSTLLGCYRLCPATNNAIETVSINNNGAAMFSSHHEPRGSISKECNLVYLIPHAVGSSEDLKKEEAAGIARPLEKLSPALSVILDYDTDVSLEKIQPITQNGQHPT

SMILES: O=C(CCN1C(=O)CSc2ccccc21)Nc1ccc(Cl)cc1 [Compound 17, N-(4-Chlorophenyl)-3-(3-oxo-2,3-dihydro-4H-benzo[b][1,4]thiazin-4-yl)propanamide]
- inhibition at 10 µM [1]: 28 ± 1%
- percentage of entries into open arms [2]: did not change
- percentage of the time spent in open arms [2]: did not change
- inhibition at 10 µM [3]: 21 ± 2%
- Kb ([4]; antagonism of 1 µM dopamine response, forskolin-stimulated cAMP, three independent experiments, read-out: D2 Signalling (cAMP) pKb (Mean ± SEM) (converted)): 26.9 nM
- efficacy at D2 receptor (mode of action) ([4]; cAMP signaling, CHO-K1 cells): antagonism
- inhibition at 10 µM [5]: 6 ± 3%

— publication PMC10223470 (Molecules, 2023)
